In this assay the target is catalytic domain of the human GARFT (Homo sapiens, UniProt P22102). The experiment in a line: biochemical.

SMILES strings stand for the structures.

Chain of catalytic domain of the human GARFT (P22102 810-1010 limits assumed): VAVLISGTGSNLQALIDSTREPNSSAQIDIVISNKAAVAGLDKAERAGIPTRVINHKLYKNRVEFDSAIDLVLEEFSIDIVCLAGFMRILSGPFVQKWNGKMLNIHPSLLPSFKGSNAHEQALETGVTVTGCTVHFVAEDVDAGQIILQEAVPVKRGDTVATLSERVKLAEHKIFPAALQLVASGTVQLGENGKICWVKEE
Experimental: Reactions mixtures were prepared containing the catalytic domain of the human GARFT, 0-250 nM test compound, 20 μM glycinamide ribonucleotide (GAR), 10 or 20 μM N^10 -formyl-5,8-dideazafolate (FDDF), 50 mM HEPES-KOH (pH 7.5), and 50 mM KCl. The reaction was initiated with the addition of enzyme to a final concentration of 11 nM, followed by monitoring of the increase in absorbance at 294 nm at 20° C. (ε294 =18.9 mM^-1 cm^-1).
The GARFT inhibition constant (Ki) was determined from the dependence of the steady-state catalytic rate on the inhibitor and substrate concentration. […] The Michaelis constant for FDDF, Km, was determined independently by the dependence of the catalytic rate on the FDDF concentration. Data for both the Km and Ki determinations were fitted by non-linear methods to the Michaelis equation or to the Michaelis equation for competitive inhibition, as appropriate.

Usually Ki stands for a measure of affinity in units of concentration, obtained from inhibition or displacement. A higher Ki goes with weaker binding. Compound `Nc1nc2c(c(=O)[nH]1)S[C@H](CCc1ccc(C(=O)N[C@@H](CCC(=O)O)C(=O)O)s1)CN2` [Compound 15, 2-(5-[2-(2-Amino-4-oxo-4,6,7,8-tetrahydro-3H-pyrimido[5,4-b][1,4]thiazin-6(R)-yl)-ethyl]-thiophene)-2-L-glutamic acid] registered a Ki of 3 nM.

These data come from patent US5981748A, “Synthesis of optically pure compounds useful as GARFT inhibitors and their intermediates” (Agouron Pharmaceuticals, Inc., priority 1998, dated 1999).
